Results reported in US7015309B1 (The Wistar Institute of Anatomy and Biology, priority 1999, dated 2006).
“Also recorded” adds a separate entry of the source. Where two headings read alike, the source gives them in different places. Non-standard residues stand in square brackets, D forms with d. Residues, ends and D or L forms follow the SMILES beside them. No end group written: not given here. ξ: configuration not given here. Ac6c = NC1(C(=O)O)CCCCC1; ξDap = NCC(N)C(=O)O

What was measured:
[1] = test system: Agrobacterium tumefaciens; settings: read-out: IC50 in μM against Agrobacterium tumefaciens; 30° C., 24 hours; for Peptide 22 original assay (a)
Protocol: (§1) Growth inhibition assays were performed using the peptides of Example 1 and the Gram positive microorganisms Micrococcus luteus and Bacillus megaterium, and the Gram negative microorganisms, Escherichia coli D22, Agrobacterium tumefaciens, and Salmonella typhimurium. Anti-bacterial assays were performed in sterilized 96-well plates (Nunc F96 microtiter plates) with a final volume of 100 μl as described in Bulet (1996), cited above. Briefly, 90 μl of a suspension of a midlogarithmic phase bacterial culture at an initial 600 nm UV absorbence of 0.001 in Luria-Bertani rich nutrient medium was added to 10 μl of serially diluted peptides in sterilized water. The final peptide concentrations ranged between 0.15 and 80 μM. The plates were incubated at 30° C. for 24 hours with gentle shaking, and the growth inhibition was measured by recording the increase of the UV absorbence at 600 nm on an SLT Labinstruments 400 ATC microplate reader. The experiments were conducted over a 7-month period.

Bacillus megaterium = test system: Bacillus megaterium
Protocol: as §1

Escherichia coli D22 = settings: read-out: IC50 in μM against Escherichia coli D22; 30° C., 24 hours; for Peptide 22 original assay (a)
Protocol: as §1

Micrococcus luteus = test system: Micrococcus luteus
Protocol: as §1

Salmonella typhimurium = settings: read-out: IC50 in μM against Salmonella typhimurium; 30° C., 24 hours; for Peptide 22 original assay (a)
Protocol: as §1

[2] = 25% aqueous pooled mouse serum (Sigma); settings: 37° C., up to 8 hours
[3] = 25% aqueous pooled human serum (Sigma), human 1, approximately 1 year old; settings: 37° C., up to 8 hours
[4] = 25% aqueous pooled human serum (Sigma), human 2, approximately 1 month old; settings: 37° C., up to 8 hours
COS cells = assay: Direct killing of immortalized COS cells; format: cell-based
Text: In another toxicity assay, COS cell survival was studied for pyrrhocoricin and cecropin B (Bachem Biosciences, King of Prussia, Pa.) as the positive control.

[5] = read-out: IC50 in μM against Bacillus megaterium, 30° C., 24 hours, for Peptide 22 original assay (a)
[6] = read-out: IC50 in μM against Micrococcus luteus, 30° C., 24 hours, for Peptide 22 original assay (a)

VDKGSYLPR [Peptide 14]
IC50 [1]: > 80 µM | IC50 (Bacillus megaterium; [5]): > 80 µM | IC50 (Escherichia coli D22): > 80 µM | IC50 (Micrococcus luteus; [6]): > 80 µM | IC50 (Salmonella typhimurium): > 80 µM

1-aminocyclo-hexane carboxylic acid (Chex)-Pyrrhocoricin-β-acetyl-2,3-diamino propionic amide [Dap(Ac)]
cleaved bond [2]: Asn18-Arg19, 45-minute; also recorded: Ser5-Tyr6, 45-minute | not cleaved [2]: −C1 not detected (0) after 45-minute digestion | cleaved bond [3]: Asn18-Arg19, 45-minute; also recorded: Ser5-Tyr6, 45-minute | fragment found [3]: −C3, 45-minute; also recorded: −N5, C2, 45-minute | not cleaved [3]: −C1 not detected (0) after 45-minute digestion | cleaved bond [4]: Asn18-Arg19, 45-minute; also recorded: Ser5-Tyr6, 45-minute | fragment found [4]: −N5, C2, 45-minute | not cleaved [4]: −C1 not detected (0) after 45-minute digestion

VDKGSYLPRPTPPRPIYN [Peptide 25]
IC50 [1]: > 80 µM | IC50 (Bacillus megaterium; [5]): > 80 µM | IC50 (Escherichia coli D22): > 80 µM | IC50 (Micrococcus luteus; [6]): > 80 µM | IC50 (Salmonella typhimurium): > 80 µM

Cecropin [reference compound]
Cell Count after Treatment (COS cells; 5 μM peptide): 6 ± 6 | Cell Count after Treatment (COS cells; 10 μM peptide): 6.7 ± 0.3 | Cell Count after Treatment (COS cells; 50 μM peptide): 7.3 ± 3.7 | effect on COS cell count (in words) (COS cells; at as low as 5 μM concentration): reduced the cell count

CC[C@H](C)[C@H](NC(=O)[C@@H]1CCCN1C(=O)[C@H](CCCNC(=N)N)NC(=O)[C@@H]1CCCN1C(=O)[C@@H]1CCCN1C(=O)[C@@H](NC(=O)[C@@H]1CCCN1C(=O)[C@H](CCCNC(=N)N)NC(=O)[C@@H]1CCCN1C(=O)[C@H](CC(C)C)NC(=O)[C@H](Cc1ccccc1)NC(=O)[C@H](C)NC(=O)CNC(=O)[C@H](CCCCN)NC(=O)[C@H](CC(=O)O)NC(=O)C1(N)CCCCC1)[C@@H](C)O)C(=O)N[C@@H](Cc1ccc(O)cc1)C(=O)N[C@@H](CC(N)=O)C(=O)N[C@@H](CCCNC(=N)N)C(=O)NC(CNC(C)=O)C(N)=O (some centres unmarked) [Peptide 23] (H-[Ac6c]DKGAFLPRPTPPRPIYNR[ξDap](Ac)-NH2)
IC50 (Bacillus megaterium; Bacillus, 24 h): 40 µM | IC50 (Escherichia coli D22): 20 µM | IC50 (Micrococcus luteus; 24 h): 5 µM

VDKGSYLPRPTPPRPIYNRN [Peptide 2, reference compound]
IC50 [1]: 0.3 µM | IC50 (Bacillus megaterium; [5]): 40 µM | IC50 (Escherichia coli D22): 0.3 µM | IC50 (Micrococcus luteus; [6]): > 80 µM | IC50 (Salmonella typhimurium): 2.5 µM

CC[C@@H](C)[C@@H](NC(=O)[C@H]1CCCN1C(=O)[C@@H](CCCNC(=N)N)NC(=O)[C@H]1CCCN1C(=O)[C@H]1CCCN1C(=O)[C@H](NC(=O)[C@H]1CCCN1C(=O)[C@@H](CCCNC(=N)N)NC(=O)[C@H]1CCCN1C(=O)[C@@H](CC(C)C)NC(=O)[C@@H](Cc1ccc(O)cc1)NC(=O)[C@@H](CO)NC(=O)CNC(=O)[C@@H](CCCCN)NC(=O)[C@@H](CC(=O)O)NC(=O)[C@H](N)C(C)C)[C@H](C)O)C(=O)N[C@H](Cc1ccc(O)cc1)C(=O)N[C@H](CC(N)=O)C(=O)N[C@H](CCCNC(=N)N)C(=O)N[C@H](CC(N)=O)C(N)=O [Peptide 13] (H-[dV][dD][dK]G[dS][dY][dL][dP][dR][dP][dT][dP][dP][dR][dP][dI][dY][dN][dR][dN]-NH2; N-terminus and C-terminus assumed)
IC50 [1]: > 80 µM | IC50 (Bacillus megaterium; [5]): > 80 µM | IC50 (Escherichia coli D22): > 80 µM | IC50 (Micrococcus luteus; 24 h): 40 µM | IC50 (Salmonella typhimurium): > 80 µM

VDKGSYLPRPTPPRPIYNRN
cleaved bond [2]: Arg19-Asn20, first_seen, 45 minute; also recorded: Asn18-Arg19, 45-minute | cleaved bond [3]: Arg19-Asn20, first_seen, 45 minute; also recorded: Asn18-Arg19, 45-minute; also recorded: Ser5-Tyr6, 45-minute | fragment found [3]: −C3, 45-minute; also recorded: −C6, 45-minute | cleaved bond [4]: Arg19-Asn20, first_seen, 45 minute; also recorded: Asn18-Arg19, 45-minute

PTPPRPIYNRN [Peptide 15]
IC50 [1]: > 80 µM | IC50 (Bacillus megaterium; [5]): > 80 µM | IC50 (Escherichia coli D22): > 80 µM | IC50 (Micrococcus luteus; [6]): > 80 µM | IC50 (Salmonella typhimurium): > 80 µM
